From patent US20220267754A1, “VECTOR-BASED MUTAGENESIS SYSTEM” (priority 2015, published 2022)

How the values were obtained:
[1] = system: E. coli MG1655 ΔrecA::apra; type: cell-based
E. coli = conditions: tabulated from Antimicrobial Index Knowledgebase; cited from earlier work

Which “fraction of cells resistant, CRB” value [1] does the source give for `CCOS(C)(=O)=O` [EMS, ethyl methanesulfonate] here?
Its value is 0.00E+00.

What about the “fraction of cells resistant, CTX” value [1] of the same compound?
The value was 1.67E−07.

What about the “fraction of cells resistant, FOS” value [1] of the same compound?
The value was 3.75E−04.

And the “fraction of cells resistant, KAN” value [1]?
The value was 8.17E−04.

What about the “fraction of cells resistant, MIX” value [1] of the same compound?
The value was 1.10E−04.

What about the “fraction of cells resistant, RIF” value [1] of the same compound?
The value was 6.68E−05.

And the “fraction of cells resistant, SPC” value [1]?
Its value is 0.00E+00.

And the “fraction of cells resistant, STR” value [1]?
The value was 1.33E−06.

What about the “fraction of cells resistant, TET” value [1] of the same compound?
Its value is 0.00E+00.

With `CC1(C)S[C@@H]2[C@H](NC(=O)C(C(=O)O)c3ccccc3)C(=O)N2[C@H]1C(=O)O` (some centres unmarked) [carbenicillin] as the compound, how does the MIC (E. coli) read?
The MIC was 2 to 25 µg/mL.

Which MIC (E. coli) does the source give for `CCn1cc(C(=O)O)c(=O)c2cc(F)c(N3CCNCC3)cc21` [norfloxacin] here?
The MIC was 0.016 to 0.125 µg/mL.

Which MIC (E. coli) does the source give for `CO[C@H]1/C=C/O[C@@]2(C)Oc3c(C)c(O)c4c(O)c(c(/C=N/N5CCN(C)CC5)c(O)c4c3C2=O)NC(=O)/C(C)=C\C=C\[C@H](C)[C@H](O)[C@@H](C)[C@@H](O)[C@@H](C)[C@H](OC(C)=O)[C@@H]1C` [rifampin] here?
The MIC was 0.5 to 16 µg/mL.

Which MIC (E. coli) does the source give for `Cc1ncc([N+](=O)[O-])n1CCO` [metronidazole] here?
The MIC was 8 to 32 µg/mL.

Which MIC (E. coli) does the source give for `CO/N=C(\C(=O)N[C@@H]1C(=O)N2C(C(=O)O)=C(COC(C)=O)CS[C@H]12)c1csc(N)n1` [cefotaxime] here?
Its MIC is 0.016 to 0.25 µg/mL.

Which “fraction of cells resistant, CRB” value [1] does the source give for `Nc1ncc2[nH]cnc2n1` [2AP, 2-aminopurine] here?
The value was 1.17E−07.

And the “fraction of cells resistant, CTX” value [1]?
The value was 2.80E−06.

And the “fraction of cells resistant, FOS” value [1]?
Its value is 4.83E−04.

What about the “fraction of cells resistant, KAN” value [1] of the same compound?
The value was 1.53E−03.

And the “fraction of cells resistant, MIX” value [1]?
The value was 2.03E−05.

And the “fraction of cells resistant, RIF” value [1]?
The value was 1.03E−05.

And the “fraction of cells resistant, SPC” value [1]?
The value was 2.50E−07.

What about the “fraction of cells resistant, STR” value [1] of the same compound?
The value was 3.17E−07.

What about the “fraction of cells resistant, TET” value [1] of the same compound?
The value was 0.00E+00.

Which MIC (E. coli) does the source give for `C[C@@H]1O[C@@H]1P(=O)(O)O` [fosfomycin] here?
The MIC was 0.125 to 8 µg/mL.

With `CN[C@@H]1[C@H](O)[C@H](NC)[C@H]2O[C@@]3(O)C(=O)C[C@@H](C)O[C@H]3O[C@@H]2[C@H]1O` [spectinomycin] as the compound, how does the MIC (E. coli) read?
The MIC was 8 to 64 µg/mL.

With `[H]/N=C(/N)N[C@H]1[C@H](O)[C@@H](O)[C@H](O[C@@H]2O[C@@H](C)[C@](O)(C=O)[C@H]2O[C@@H]2O[C@@H](CO)[C@H](O)[C@@H](O)[C@@H]2NC)[C@@H](N/C(N)=N\[H])[C@@H]1O` [streptomycin] as the compound, how does the MIC (E. coli) read?
The MIC was 1 to 16 µg/mL.
